Results reported in patent publication US8415393B2, “Anti-bacterial drug targeting of genome maintenance interfaces” (Wisconsin Alumni Research Foundation, priority 2007, dated 2013).
“Also recorded” adds a separate entry of the source. Where two headings read alike, the source gives them in different places. Where no end group is shown, it is not given here. fluorescein = fluorescein moiety attached to the N-terminus of the peptide (N-terminal fluorescein label)

Key:
[1] = tested on: HT-29 (human colorectal adenocarcinoma) cells; experiment: Mammalian cell toxicity, CellTiter-Glo cell viability assay; format: cell-based
Procedure: The toxicity of the identified antimicrobial candidate compounds was tested using human colorectal adenocarcinoma cells in vitro. […] The mammalian cells were tested using a CellTiter-Glo cell viability assay (Promega, Madison, Wis.).

red blood cells = experiment: In vitro hemolysis; format: cell-based; conditions: for % hemolysis at given concentration: 1 hour; for Hemolysis: Table 3, minimum concentration necessary to lyse red blood cells
Procedure: The identified small molecules were incubated with red blood cells to see what percentage of cells would lyse after 1 hour. Estimated hemolysis data are due to problem with reading absorbance, when the compound absorbs at the same wavelength as heme or if the compound precipitates. In such instances it is difficult to quantitate the absorbance readings; however, visual determination of how many cells have lysed can then be performed, which provides an estimate of cell lysis.

[2] = target: Exonuclease I/SSB-Ct complex (Escherichia coli, UniProt P04995); experiment: Fluorescence polarization competition: inhibition of fluorescein-SSB C-terminal peptide binding to Exonuclease I (HTS and Ki determination); conditions: for peptide binding inhibition: ExoI/SSB-Ct peptide
Procedure: Peptide binding assays were performed in solution, using the peptides from above, and Exonuclease I, in the absence or presence of various compounds. Different amounts of Exonuclease I (ExoI) were used in the peptide binding assays. […] Fluorescence polarization (FP) was measured at 25° C. in triplicate; the average FP value was plotted with standard deviation of the mean shown as error.
Concentrated Exonuclease I was dialyzed overnight into 2 liters dilution buffer (DB) (20 mM Tris pH 8.0 HCl, 100 mM NaCl, 1 mM MgCl2, and 1 mM Beta-Mercaptoethanol). […] After sitting at room temperature for 5 min, a liquid handling system was used to aliquot this solution into 384 well plates providing 30 microliters/well. One microliter of 1 mM compound was then added. The screened compounds were obtained from the ChemBridge DIVERSet library (ChemBridge Corporation, San Diego, Calif.), from the Maybridge HitFinder library (Thermo Fisher Scientific, Waltham, Mass.), from the ChemDiv library (Chemical Diversity Labs, San Diego, Calif.), or from the Known Bioactive Library—KBA01.
The FP (fluorescence polarization) values for each well were read using a (plate reader) 5 minutes after compound addition.
Increasing amounts of compound were titrated into peptide protein mixture until FP values were lowered to values given by only fluorescently labeled peptide alone. Ki values were determined using the Ki calculator for fluorescence-based competitive binding assays of Prof. Shaomeng Wang, University of Michigan (Nikolovska-Coleska et al., 2004, Anal. Biochem. 332: 261-273).

[3] = tested on: E. coli 4213 (imp4213, compromised cell wall); experiment: microbe, parasite or virus in culture; format: cell-based; conditions: Escherichia coli
Procedure: The compromised cell wall allows the chemicals to pass through it more readily.
(§1) 100 μL of LB containing E. coli 1655, E. coli 4213, or S. aureus at A ˜0.05 OD 600 was aliquoted in 96 well plates. One μL of compound in DMSO was added to final concentrations given. Plates were incubated at 37° C. with shaking at 250 RPM. Rate of growth was calculated by determining the average change in OD/hour that took place between hours 3 and 7 (log growth phase). The graphs shown herein are plots of this bacterial growth rate (change in OD/h) against inhibitor concentration in μM.

[4] = tested on: Staphylococcus aureus 12598; experiment: Bacterial growth assay in LB liquid media, S. aureus; format: cell-based
Procedure: as §1

[5] = target: T1, fluorescein-labeled SSB C-terminal peptide, fluorescein-WMDFDDDIPF (E. coli); experiment: equilibrium fluorescence anisotropy
T1 construct: also called F-WT; F-SSB-Ct
T1 peptide: fluorescein-WMDFDDDIPF

[6] = HT-29 cells, CellTiter-Glo, read-out: IC50
[7] = read-out: IC50 μM inhibitor, inhibition of E. coli growth
[8] = read-out: IC(50) E. coli imp4213
[9] = Staphylococcus aureus, 12598, Table 3, reduce growth 50% in liquid media, unit not given (Table 5 gives μM), read-out: IC(50) S. aureus
[10] = Staphylococcus aureus, 12598, Table 5, read-out: IC50 μM inhibitor, inhibition of S. aureus growth

Chain of Exonuclease I/SSB-Ct complex (P04995 whole entry, one chain of several): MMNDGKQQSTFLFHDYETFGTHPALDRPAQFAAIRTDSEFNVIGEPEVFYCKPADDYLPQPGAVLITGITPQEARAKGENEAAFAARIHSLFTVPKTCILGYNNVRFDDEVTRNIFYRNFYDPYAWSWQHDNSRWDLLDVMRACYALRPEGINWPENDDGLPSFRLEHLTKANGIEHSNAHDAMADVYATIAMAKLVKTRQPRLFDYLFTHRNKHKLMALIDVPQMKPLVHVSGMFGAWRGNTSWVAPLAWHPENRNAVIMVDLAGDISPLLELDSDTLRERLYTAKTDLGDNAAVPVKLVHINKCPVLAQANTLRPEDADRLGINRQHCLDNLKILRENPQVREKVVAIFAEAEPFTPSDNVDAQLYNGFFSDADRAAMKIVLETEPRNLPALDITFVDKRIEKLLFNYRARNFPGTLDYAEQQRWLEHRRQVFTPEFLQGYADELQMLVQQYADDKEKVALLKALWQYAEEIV

## CC1=NN(c2nc3ccc(Cl)cc3s2)C(=O)C1 [Compound 46, 1-(6-chloro-1,3-benzothiazol-2-yl)-3-methyl-4,5-dihydro-1H-pyrazol-5-one]
[1]; [6]
  IC50: 55 µM
Red blood cells; >800 μM
  % hemolysis at given concentration: 0% >800
Red blood cells
  Hemolysis: >800 µM
[2]
  Ki: 1.5 µM
[2]; Ki estimates, Table 2
  Ki: 1.5 µM

## CC(C)c1cc(O)n(-c2nc3ccccc3s2)n1 [Compound 29, 1-(1,3-benzothiazol-2-yl)-3-isopropyl-1H-pyrazol-5-ol]
[1]; HT-29
  IC50: > 100 µM
[3]; [7]
  IC50: 88 µM
[3]; [8]
  IC50: 88 µM
Red blood cells; >800 μM
  % hemolysis at given concentration: 0% >800
Red blood cells
  Hemolysis: >800 µM
[2]
  peptide binding inhibition: did not inhibit binding

## Cc1nn(-c2nc3ccccc3s2)c(O)c1C [Compound 28, 1-(1,3-benzothiazol-2-yl)-3,4-dimethyl-1H-pyrazol-5-ol]
[1]; HT-29
  IC50: > 100 µM
[3]; [7]
  IC50: 38 µM
[3]; [8]
  IC50: 38 µM
Red blood cells; >800 μM
  % hemolysis at given concentration: 0% >800
Red blood cells
  Hemolysis: >800 µM
[2]
  peptide binding inhibition: did not inhibit binding

## Cc1noc(C)c1C(=O)Nc1nc2ccc(Cl)cc2s1 [Compound 42, N-(6-chloro-1,3-benzothiazol-2-yl)-3,5-dimethyl-4-isoxazolecarboxamide]
[1]; [6]
  IC50: 51 µM
[4]; [9]
  IC50: 9 µM
[4]; [10]
  IC50: 9 µM
Red blood cells; >800 μM
  % hemolysis at given concentration: 0% >800
Red blood cells
  Hemolysis: >800 µM

## CC1=NN(c2nc3ccccc3s2)C(=O)C1 [Compound 31, 2-(1,3-benzothiazol-2-yl)-5-methyl-2,4-dihydro-3H-pyrazol-3-one]
[3]; [7]
  IC50: 50 to 100 µM
[3]; [8]
  IC50: 50 to 100 µM
Red blood cells; >800 μM
  % hemolysis at given concentration: 0% >800
Red blood cells
  Hemolysis: >800 µM
[2]
  peptide binding inhibition: much weaker binding; also recorded: did not inhibit binding

## O=[N+]([O-])c1ccc(Oc2cc(C(F)(F)F)ccc2Cl)cc1O [Compound 37, 5-[2-chloro-5-(trifluoromethyl)phenoxy]-2-nitrophenol]
[1]; HT-29
  IC50: > 100 µM
[4]; Staphylococcus aureus, 12598, read-out: IC50 μM inhibitor, inhibition of S. aureus growth
  IC50: 2.5 µM
[4]; Staphylococcus aureus, 12598, read-out: IC(50) S. aureus
  IC50: 2.5 µM
[3]; [7]
  IC50: 33 µM
[3]; [8]
  IC50: 33 µM
Red blood cells; 800 μM
  % hemolysis at given concentration: estimated 0% 800
Red blood cells
  Hemolysis: >800 µM
[2]
  Ki: 0.7 µM
[2]; Ki estimates, Table 2
  Ki: 0.7 µM

## O=C(O)c1ccccc1Nc1cccc(C(F)(F)F)c1 [Compound 32, 2-[3-(trifluoromethyl)anilino]benzoic acid]
[1]; [6]
  IC50: > 100 µM
[4]; [9]
  IC50: 30 µM
[4]; [10]
  IC50: 30 µM
[3]; [7]
  IC50: 33 µM
[3]; [8]
  IC50: 33 µM
Red blood cells; >800 μM
  % hemolysis at given concentration: 0% >800
Red blood cells
  Hemolysis: >800 µM
[2]
  Ki: 1.5 µM
[2]; Ki estimates, Table 2
  Ki: 1.5 µM

B1: ExoI Arg148 Ala variant (enzyme)
chain: MMNDGKQQSTFLFHDYETFGTHPALDRPAQFAAIRTDSEFNVIGEPEVFYCKPADDYLPQPGAVLITGITPQEARAKGENEAAFAARIHSLFTVPKTCILGYNNVRFDDEVTRNIFYRNFYDPYAWSWQHDNSRWDLLDVMRACYALAPEGINWPENDDGLPSFRLEHLTKANGIEHSNAHDAMADVYATIAMAKLVKTRQPRLFDYLFTHRNKHKLMALIDVPQMKPLVHVSGMFGAWRGNTSWVAPLAWHPENRNAVIMVDLAGDISPLLELDSDTLRERLYTAKTDLGDNAAVPVKLVHINKCPVLAQANTLRPEDADRLGINRQHCLDNLKILRENPQVREKVVAIFAEAEPFTPSDNVDAQLYNGFFSDADRAAMKIVLETEPRNLPALDITFVDKRIEKLLFNYRARNFPGTLDYAEQQRWLEHRRQVFTPEFLQGYADELQMLVQQYADDKEKVALLKALWQYAEEIV
notes: peptide-A-site variant; also called R148A; Arg148 variant
[5]
  fold weaker binding than wild-type ExoI: 10 to 100 fold

B2: ExoI Arg338 Ala variant (enzyme)
chain: MMNDGKQQSTFLFHDYETFGTHPALDRPAQFAAIRTDSEFNVIGEPEVFYCKPADDYLPQPGAVLITGITPQEARAKGENEAAFAARIHSLFTVPKTCILGYNNVRFDDEVTRNIFYRNFYDPYAWSWQHDNSRWDLLDVMRACYALRPEGINWPENDDGLPSFRLEHLTKANGIEHSNAHDAMADVYATIAMAKLVKTRQPRLFDYLFTHRNKHKLMALIDVPQMKPLVHVSGMFGAWRGNTSWVAPLAWHPENRNAVIMVDLAGDISPLLELDSDTLRERLYTAKTDLGDNAAVPVKLVHINKCPVLAQANTLRPEDADRLGINRQHCLDNLKILAENPQVREKVVAIFAEAEPFTPSDNVDAQLYNGFFSDADRAAMKIVLETEPRNLPALDITFVDKRIEKLLFNYRARNFPGTLDYAEQQRWLEHRRQVFTPEFLQGYADELQMLVQQYADDKEKVALLKALWQYAEEIV
notes: basic ridge variant; also called R338A; Arg338 variant
[5]
  fold binding defect: 3 fold

B3: ExoI Asp319 Ala variant (enzyme)
chain: MMNDGKQQSTFLFHDYETFGTHPALDRPAQFAAIRTDSEFNVIGEPEVFYCKPADDYLPQPGAVLITGITPQEARAKGENEAAFAARIHSLFTVPKTCILGYNNVRFDDEVTRNIFYRNFYDPYAWSWQHDNSRWDLLDVMRACYALRPEGINWPENDDGLPSFRLEHLTKANGIEHSNAHDAMADVYATIAMAKLVKTRQPRLFDYLFTHRNKHKLMALIDVPQMKPLVHVSGMFGAWRGNTSWVAPLAWHPENRNAVIMVDLAGDISPLLELDSDTLRERLYTAKTDLGDNAAVPVKLVHINKCPVLAQANTLRPEAADRLGINRQHCLDNLKILRENPQVREKVVAIFAEAEPFTPSDNVDAQLYNGFFSDADRAAMKIVLETEPRNLPALDITFVDKRIEKLLFNYRARNFPGTLDYAEQQRWLEHRRQVFTPEFLQGYADELQMLVQQYADDKEKVALLKALWQYAEEIV
notes: also called D319A; Asp319 variant
[5]
  fold binding defect: 2 fold

B4: ExoI Glu150 Ala variant (enzyme)
chain: MMNDGKQQSTFLFHDYETFGTHPALDRPAQFAAIRTDSEFNVIGEPEVFYCKPADDYLPQPGAVLITGITPQEARAKGENEAAFAARIHSLFTVPKTCILGYNNVRFDDEVTRNIFYRNFYDPYAWSWQHDNSRWDLLDVMRACYALRPAGINWPENDDGLPSFRLEHLTKANGIEHSNAHDAMADVYATIAMAKLVKTRQPRLFDYLFTHRNKHKLMALIDVPQMKPLVHVSGMFGAWRGNTSWVAPLAWHPENRNAVIMVDLAGDISPLLELDSDTLRERLYTAKTDLGDNAAVPVKLVHINKCPVLAQANTLRPEDADRLGINRQHCLDNLKILRENPQVREKVVAIFAEAEPFTPSDNVDAQLYNGFFSDADRAAMKIVLETEPRNLPALDITFVDKRIEKLLFNYRARNFPGTLDYAEQQRWLEHRRQVFTPEFLQGYADELQMLVQQYADDKEKVALLKALWQYAEEIV
notes: also called E150A; Glu150 variant
[5]
  fold enhanced binding relative to wild-type ExoI: ~2 fold

B5: ExoI Arg316 Ala variant (enzyme)
chain: MMNDGKQQSTFLFHDYETFGTHPALDRPAQFAAIRTDSEFNVIGEPEVFYCKPADDYLPQPGAVLITGITPQEARAKGENEAAFAARIHSLFTVPKTCILGYNNVRFDDEVTRNIFYRNFYDPYAWSWQHDNSRWDLLDVMRACYALRPEGINWPENDDGLPSFRLEHLTKANGIEHSNAHDAMADVYATIAMAKLVKTRQPRLFDYLFTHRNKHKLMALIDVPQMKPLVHVSGMFGAWRGNTSWVAPLAWHPENRNAVIMVDLAGDISPLLELDSDTLRERLYTAKTDLGDNAAVPVKLVHINKCPVLAQANTLAPEDADRLGINRQHCLDNLKILRENPQVREKVVAIFAEAEPFTPSDNVDAQLYNGFFSDADRAAMKIVLETEPRNLPALDITFVDKRIEKLLFNYRARNFPGTLDYAEQQRWLEHRRQVFTPEFLQGYADELQMLVQQYADDKEKVALLKALWQYAEEIV
notes: peptide-A-site variant; also called R316A; Arg316 variant
[5]
  fold weaker binding than wild-type ExoI: 10 to 100 fold

B6: ExoI Gln311 Ala variant (enzyme)
chain: MMNDGKQQSTFLFHDYETFGTHPALDRPAQFAAIRTDSEFNVIGEPEVFYCKPADDYLPQPGAVLITGITPQEARAKGENEAAFAARIHSLFTVPKTCILGYNNVRFDDEVTRNIFYRNFYDPYAWSWQHDNSRWDLLDVMRACYALRPEGINWPENDDGLPSFRLEHLTKANGIEHSNAHDAMADVYATIAMAKLVKTRQPRLFDYLFTHRNKHKLMALIDVPQMKPLVHVSGMFGAWRGNTSWVAPLAWHPENRNAVIMVDLAGDISPLLELDSDTLRERLYTAKTDLGDNAAVPVKLVHINKCPVLAAANTLRPEDADRLGINRQHCLDNLKILRENPQVREKVVAIFAEAEPFTPSDNVDAQLYNGFFSDADRAAMKIVLETEPRNLPALDITFVDKRIEKLLFNYRARNFPGTLDYAEQQRWLEHRRQVFTPEFLQGYADELQMLVQQYADDKEKVALLKALWQYAEEIV
notes: peptide-A-site variant; also called Q311A; Gln311 variant
[5]
  fold binding defect relative to wild-type ExoI: 2 fold
